From patent US11834424B2, “Compounds useful as chaperone-mediated autophagy modulators” (ALBERT EINSTEIN COLLEGE OF MEDICINE, priority 2018, dated 2023)

How the values were obtained:
in vitro = settings: for CLint(mic) / Remaining (T = 60 min): 3 μM; for Remaining (T = 60 min): 1 h; for CLint scaled at 3 μM: CLint(liver)
Protocol: Microsome stability was determined in human, rat, and mouse, liver microsomes. Compound at 3 μM final concentration along with 0.5 mg/mL microsome protein and 1 mM NADPH was incubated for 0, 5, 15, 30 and 60 min. As a negative control, test compound was incubated with microsomes in the absence of NADPH. Samples were quenched with methanol and centrifuged for 25 min at 2500 rpm to precipitate proteins. Supernatants were analyzed (N=3) by LC-MS/MS. The In peak area ratio (compound peak area/internal standard peak area) was plotted against time and the gradient of the line determined the elimination rate constant [k=(−1)(slope)].
R^2 is the correlation coefficient of the linear regression for the determination of kinetic constant. T1/2 is the half life and CLint (mic) is the intrinsic clearance. CLint(liver)=CLint (mic)*mg microsomal protein/g liver weight*g liver weight/kg body weight. Liver weight/kg body weight is 20 g/kg for human.

[1] = test system: chaperone-mediated autophagy (CMA) in NIH 3T3 fibroblasts; assay: Photoswitchable KFERQ-Dendra CMA reporter assay in NIH 3T3 fibroblasts; format: cell-based
Protocol: The photoactivatable CMA reporter assay was constructed by inserting a sequence of 21 amino acid of Ribonuclease A bearing the CMA-targeting motif in the N-terminus multicloning site of the photoactivatable protein mCherryl or the photoswitchable protein Dendra 2.
NIH 3T3 fibroblasts were stably transduced with a photoconvertible CMA reporter, KFERQ-Dendra. were photoswitched by exposure to a […] (constant current) LED (Norlux, 405 nm) for 10 minutes and at the desired times fixed in 3% formaldehyde. Test cells were exposed to the indicated concentrations of the compounds for 12 hours (FIG. 3A) or 24 hours (FIG. 3B). Cells were imaged using high content microscopy (Operetta, Perkin Elmer) or by capturing images with an Axiovert 200 fluorescence microscope (Zeiss) with apotome and equipped with a 63/1.4 NA oil objective lens and red (ex. 570/30 nm, em. 615/30 nm), cyan (ex. 365/50 nm and em. 530/45 nm) and green (ex. 475/40 nm and em. 535/45 nm) filter sets (Chroma). Images were acquired with a high-resolution CCD camera after optical sectioning through the apotome. CMA activity measured as the average number of fluorescent puncta (CMA active lysosomes) per cell. Values are expressed relative to values in untreated cells that were assigned an arbitrary value of 1 and are mean of >2,500 cells counted per condition. The S.D. in all instances was <0.01% mean value. Table 2 provides a comparison of compounds CA39.1 and its comparative example CA39 and CA77.01 and its comparative example CA77.

[2] = Pharmacokinetics (plasma and brain levels) in ICR (CD-1) mice; format: in vivo; settings: ICR (CD-1) mice
Protocol: ICR (CD-1) male mice were fasted at least three horns and water was available ad libitum before the study. Animals were housed in a controlled environment, target conditions: temperature 18 to 29° C., relative humidity 30 to 70%. Temperature and relative humidity was monitored daily. An electronic time controlled lighting system was used to provide a 12 h light/12 h dark cycle. 3 mice for each indicated time point. ICR (CD-1) mice were administered CA77 at 1 mg/kg i.v. and 30 mg/kg p.o. or CA77.1 at 1 mg/kg i.v. (FIG. 2A) and 10 mg/kg p.o. (FIG. 2B). Three (3) mice were included in each dosage and time group. Mice were sacrificed and plasma and brains were obtained at 0.083, 0.25, 0.50, 1.0, 2.0, 4.0, 8.0, and 24.0 hours after administration and drug concentration determined using LC-MS/MS. Brains were removed, homogenized with a tissue homogenizer in cold 5% w/v BSA in phosphate buffer saline (PBS). A 100 microliter aliquots of brain samples were dispensed in to glass culture tubes and mixed with ethyl acetate (800 μl), vortexed, and centrifuged. The organic layer was transferred to a fresh culture tube, dried under nitrogen, and reconstituted in mobile phase for quantitation. Pharmacokinetic parameters were determined by standard methods using Phoenix WinNonlin 6.3 software.
Tables 3A and 3B provide the concentrations of CA77 in ICR (CD-1) mouse plasma (3A) and mouse brain (3B) following i.v. administration of 1 mg/kg CA77. Table 3C provides the brain/plasma ratio of CA77 following i.v. administration of 1 mg/kg CA77. Shaded cells indicate data not included in statistics due to aberrant value. BLQ=Below Limit of Quantitation.
Tables 5A and 5B provide the concentrations of CA77.1 in ICR (CD-1) mouse plasma (5A) and mouse brain (5B) following i.v. administration of 1 mg/kg CA77.1. Table 5C provides the brain/plasma ratio of CA77.1 following i.v. administration of 1 mg/kg CA77.1. The plasma and brain pharmacokinetic parameters for CA77.1 are provided in Table 6. *—cells contain data not present in the statistics.

[3] = T1/2, human microsomes, 3 μM compound, 0.5 mg/mL protein, 1 mM NADPH

Row | Structure (SMILES) | half-life at 3 μM (in vitro; human, microsomes) | CLint(mic) (in vitro; human, microsomes) | Remaining (T = 60 min) (in vitro; human, microsomes) | CLint scaled at 3 μM (in vitro; human, microsomes) | CMA activity (fluorescent puncta per cell, relative to untreated cells = 1) ([1]; Time 5) | CMA activity (fluorescent puncta per cell, relative to untreated cells = 1) ([1]; Time 10) | CMA activity (fluorescent puncta per cell, relative to untreated cells = 1) ([1]; Time 20) | CMA activity (fluorescent puncta per cell, relative to untreated cells = 1) ([1]; Time 30) | half-life at 3 μM (in vitro; [3]) | also measured
1 | Clc1ccc2c(c1)OCC(c1ccc(-c3ccccc3)cc1)=N2 [CA39, 3-([1,1′-biphenyl]-4-yl)-7-chloro-2H-benzo[b][1,4]oxazine, reference compound] | 37.9 min | 36.6 µL/min/mg | 30.1% | 32.9 mL/min/kg | 2.457 | 2.619 | 3.587 | 4.374 |  | 
2 | C[C@]12CC[C@H]3[C@@H](CCC4=CC(=O)CC[C@@]43C)[C@@H]1CC[C@@H]2O [Testosterone] |  |  |  |  |  |  |  |  | 57.5 min | 
3 | Clc1ccc2nc(-c3ccc(-c4ccccc4)cc3)cnc2c1 [CA39.1, 2-([1,1′-biphenyl]-4-yl)-6-chloroquinoxaline] | > 145 min | < 9.6 µL/min/mg | 96.0% | < 8.6 mL/min/kg | 2.107 | 2.233 | 2.605 | 2.925 |  | 
4 | O=S(=O)(Nc1ccc(-c2cnc3cc(Cl)ccc3n2)cc1)C(F)(F)F [CA77, reference compound] |  |  |  |  |  |  |  |  |  | AUCINF_obs ([2]; i.v. 1 mg/kg): 35.8 ng·h/mL; AUClast ([2]; i.v. 1 mg/kg): 35.3 ng·h/mL; CL_obs ([2]; i.v. 1 mg/kg): 465 mL/min/kg; Cmax ([2]; i.v. 1 mg/kg): 36.2 ng/mL; MRTINF_obs ([2]; i.v. 1 mg/kg): 57.1 min; T1/2 ([2]; i.v. 1 mg/kg): 38.1 min; Tmax ([2]; i.v. 1 mg/kg): 4.98 min; VSS_obs ([2]; i.v. 1 mg/kg): 26.548 L/kg; F % ([2]; p.o. 30 mg/kg vs i.v. 1 mg/kg): 124%; AUCINF_obs ([2]; p.o. 30 mg/kg): 1458 ng·h/mL; AUClast ([2]; p.o. 30 mg/kg): 1317 ng·h/mL; CL_obs ([2]; p.o. 30 mg/kg): 343 mL/min/kg; Cmax ([2]; p.o. 30 mg/kg): 278 ng/mL; MRTINF_obs ([2]; p.o. 30 mg/kg): 238 min; T1/2 ([2]; p.o. 30 mg/kg): 131 min; Tmax ([2]; p.o. 30 mg/kg): 120 min
5 | O=C(O)Cc1ccccc1Nc1c(Cl)cccc1Cl [Diclofenac] | 105 min |  |  | 94.4 mL/min/kg |  |  |  |  | 15.7 min | 
